The record followed here is patent publication US20080113908A1, “Use of CRF receptor agonists for the treatment or Prophylaxis of diseases, for example Neurodegenerative diseases” (SmithKline Beecham plc, priority 2000, published 2008).

Where two headings read alike, the source gives them in different places. Ends that are not written are not given here.

Series [1] concerns primary cerebellar granule neurones. Put plainly: Assay 2: effect of CP154,526 on agonist protection against LY294002 neurotoxicity. Type of series: cell-based, rat. The conditions noted are these: LY 294002 75 μM; for effect of CP 154,526 on neuroprotective effect of CRF receptor agonist (FIGS. 2B-D): urocortin, urotensin 1 or sauvagine 10 nM. Here is the method:
Assay 2: This assay measures the effects of CP154,526, a selective CRF receptor-1 antagonist, on the protective effects of a putative CRF receptor agonist against neurotoxicity induced by LY294002 in primary cerebellar granule neurones. The assay is identical to Assay 1 except that after shifting the granule neurone cultures to the medium, the cultures were incubated with CP154,526 at concentrations varying from 3 nM to 1000 nM for 30 minutes prior to simultaneous addition of the putative CRF receptor agonist (10 nM) and LY 294002 (75 μM). 48 hours later neuronal survival was measured as in Assay 1.
The columns from left to right represent: (1) control: cells cultured with CRF (10 nM) and LY 294002 (75 μM); (2 to 7) cells cultured with CRF (10 nM), LY 294002 (75 μM) and CP 154,526 at concentrations of 3 nM, 10 nM, 30 nM, 100 nM, 300 nM and 1000 nM respectively; and (8) cells cultured without agonist (CRF) but with LY 294002 (75 μM).

The test system of another series is hippocampal neurones. Put plainly: Amyloid-β peptide (25-35) toxicity, survival by counting viable neurons (FIGS. 8, 9). Conditions: for neuronal death: 10-20 μM. Type of series: cell-based. Here is the method:
In order to test whether CRF receptor agonists protect neurones from death caused by Aβ, the following experiment was conducted (FIGS. 8 and 9). Hippocampal neurons from embryonic day 18 rat were cultured in serum-free medium (neurobasal/B27) for 9 days. The culture methods are described on page 48 of S. D. Skaper et al., J. Neurochem., 2001, 76, 47-55. Cells were then treated with amyloid-β peptide (fragment 25-35) (Sigma, cat. no. A-4559, sequence Gly-Ser-Asn-Lys-Gly-Ala-Ile-Ile-Gly-Leu-Met) at 10 μM plus the indicated CRF receptor agonist at the indicated concentration, in the same culture medium. […] Cell survival was assessed after 3 days, by fixing the cultures and counting microscopically viable neurons. Values are expressed relative to numbers of surviving neurons in untreated cultures (=100).

The subject of series [2] is cerebellar granule neurones. The series is classed as cell-based, rat. The conditions noted are these: 48 h, MTT, sham-treated = 100%. Here is the method: Cerebellar granule neurones were used in the examples to test neuroprotection by CRF receptor agonists. Cerebellar granule neurones (CGNs) undergo apoptosis during the first few weeks of postnatal life, and in culture require mildly depolarising concentrations of KCl (25 mM) for their survival and maturation (S. R: D'Mello et al., Proc. Natl. Acad. Sci. USA 90, 10989-10993, 1993). The growth signal provided by KCl depends upon activation of the phosphatidylinositol 3-kinase (PI 3-kinase) pathway, and pharmacological inhibition of PI 3-kinase in differentiated granule neurones leads to apoptotic death in the CGNs (T. M. Miller et al., J. Biol. Chem., 272, 9847-9853, 1997). Thus, cultured CGNs represent a suitable model to study mechanisms of programmed cell death, and to identify putative neuroprotective signalling pathways.
Assay 1: Cerebellar granule neurones prepared from postnatal day 8 Sprague Dawley rat pups were used for experiments on death induced by inhibition of PI 3-kinase. General culture methods are described in S. D. Skaper et al. in Methods in Neurosciences, Vol. 2 (Conn P. M., ed), pp. 17-33. Academic Press, San Diego, 1990. At 8-9 days in vitro (DIV), granule neurone cultures were shifted to phenol red-free Dulbecco's modified Eagle's medium lacking serum, and containing 0.05% bovine serum albumin and 25 mM KCl. Death was induced by addition of the PI 3-kinase inhibitor LY 294002 (75 μM). CRF or CRF agonist peptides (urotensin 1, urocortin, sauvagine) were added at different concentrations (from 0.3nM to 300 nM or 1000 nM) together with LY 294002. Forty-eight hours later neuronal survival was quantified by a colorimetric reaction MTT. Absolute MTT values obtained were normalised for small differences in interexperiment plating densities by scaling to the mean of sham-treated sister cultures (defined as 100%).
Results are shown in Table 1 below and in graphical form in FIG. 1, which show the percentage mean neuronal survival (and standard deviation), when in the presence of the relevant CRF receptor agonists and LY 294002, as a function of agonist concentration. […] Urotensin 1, urocortin and sauvagine were also neuroprotective albeit with lower potency (<1 μM).

Series [3] deals with cerebellar granule neurones. Put plainly: Assay 3: intracellular cyclic AMP enzyme immunoassay. The series is classed as cell-based, rat. The conditions noted are these: agonist 0 to 30 nM, 15 min, 0.5 mM IBMX. Here is the method: Assay 3: The production of cAMP by the CRF receptor agonist peptides CRF, urotensin 1, urocortin and sauvagine was measured as follows. This assay can be used analogously for any putative CRF receptor agonists including non-peptide agonists.
Intracellular cyclic AMP was measured with a cAMP 2-site enzyme immunoassay system (trade mark BIOTRAK, commercially available from Amersham Pharmacia Biotech, PO Box 164, Rainham, Essex RM13 8JZ, United Kingdom, Amersham catalogue number RPN225), based upon the use of a sensitive and highly specific capture antibody for cyclic AMP:
Cerebellar granule neurones were seeded in polylysine-coated […] plates, 3.5×10^5 cells per 48-well, in Basal medium Eagle's containing 10% fetal calf serum, 25 mM KCl, and antibiotics. At 8-9 days in vitro, granule neurone cultures were shifted to serum-free plating medium (0.4 ml) with 0.5 mM IBMX (to inhibit the breakdown of cyclic AMP) for 15 min (37° C.). Wells then received 0.1 ml of test peptide (5× final concentration). Generally 1 μM is the preferable final concentration for a putative CRF agonist under test, though different (e.g. lower) concentrations can be used as shown for the peptide agonists in FIG. 3. Incubation was continued for 15 min. Test medium was removed and the plate placed on dry ice, and stored at −140° C. Cyclic AMP analysis was performed the following day.
Cells were then lysed with the reagent provided with the BIOTRAK kit. Intracellular content of cyclic AMP in the lysates was assayed following the manufacturer's instructions. A standard curve was constructed using the cyclic AMP calibration provided, with the quantity of bound cyclic AMP being inversely proportional to the amount of second (chromogenic) antibody bound to the reaction wells. The colour product was read with an ELISA plate reader, and was a function of the amount of cyclic AMP in the unknown sample.

For series [4], the target named is CRF receptor-1 (Type 1 CRF receptor) on primary rat neurones (rat, UniProt P35353). Put plainly: cell-based or functional assay.
Where [5] appears, read: agonist 0.3 nM with LY 294002 75 μM.
Where [6] appears, read: agonist 1 nM with LY 294002 75 μM.
Setting [7] is: agonist 3 nM with LY 294002 75 μM.
The mark [8] stands for this setting: agonist 10 nM with LY 294002 75 μM.
[9] abbreviates: agonist 30 nM with LY 294002 75 μM.
[10] abbreviates: agonist 100 nM with LY 294002 75 μM.
The mark [11] stands for this setting: agonist 300 nM with LY 294002 75 μM.

Consider `CCCCN(CC)c1nc(C)nc2c1c(C)cn2-c1c(C)cc(C)cc1C` [CP 154,526], for which the “effect of CP 154,526 on neuroprotective effect of CRF receptor agonist (FIGS. 2B-D)” value in series [1] (CP 154,526 300 nM) is on record as “partial reductions in neuroprotection”; in series [1] (CP 154,526 1000 nM) it was “remove most or all of the neuroprotective effect”. In series [1] (CP 154,526 as low as 300 nM, CRF 10 nM), the “effect of CP 154,526 on neuroprotective effect of CRF (FIG. 2A)” value is “remove almost completely the neuroprotective effect of 10 nM CRF”. Besides, the “effect of CP-154,526 on CRF's neuroprotection (FIG. 8)” value with hippocampal neurones (CP-154,526 1 μM with CRF (30 nM) and Aβ(25-35) 10 μM, 3 days) is recorded as “cancels all of CRF's neuroprotection”.

As for `CC[C@H](C)[C@H](NC(=O)[C@@H](NC(=O)[C@H](CC(=O)O)NC(=O)[C@H](CC(C)C)NC(=O)[C@H](CC(C)C)NC(=O)[C@H](CC(C)C)NC(=O)[C@H](CCCNC(=N)N)NC(=O)[C@H](CC(N)=O)NC(=O)[C@H](CC(N)=O)NC(=O)[C@H](C)NC(=O)[C@H](C)NC(=O)[C@H](CCC(N)=O)NC(=O)[C@H](CCC(N)=O)NC(=O)[C@H](CCCCN)NC(=O)[C@H](CCC(=O)O)NC(=O)[C@H](CCCCN)NC(=O)[C@H](CCC(=O)O)NC(=O)[C@H](CCC(N)=O)NC(=O)[C@H](CCCCN)NC(=O)[C@H](CCC(=O)O)NC(=O)[C@@H](NC(=O)[C@H](CCC(=O)O)NC(=O)[C@@H](NC(=O)[C@H](CCSC)NC(=O)[C@H](CCCCN)NC(=O)[C@H](CCCNC(=N)N)NC(=O)[C@H](CC(C)C)NC(=O)[C@H](CC(C)C)NC(=O)[C@H](CCC(=O)O)NC(=O)[C@H](CC(C)C)NC(=O)[C@H](CO)NC(=O)[C@H](CC(C)C)NC(=O)[C@H](CC(=O)O)NC(=O)[C@@H](NC(=O)[C@H](CO)NC(=O)[C@@H](NC(=O)[C@@H]1CCCN1C(=O)[C@@H]1CCCN1C(=O)CNC(=O)[C@@H]1CCC(=O)N1)[C@@H](C)CC)[C@@H](C)CC)[C@@H](C)CC)[C@@H](C)CC)[C@@H](C)O)C(N)=O` [Sauvagine], the Mean survival % turned out to be 49.33% in series [2] (setting [5]); 66.5% in series [2] (setting [6]); 76.33% in series [2] (setting [7]); 80.67% in series [2] (setting [8]); 78.67% in series [2] (setting [9]); 77.33% in series [2] (setting [10]). This molecule also registered a Mean survival % in series [2] (setting [11]) of 78.33%. Moreover, the “cAMP synthesis induced by agonist (FIG. 3)” value in series [3] is “cAMP production increased with agonist concentration”.

Turning to “DDPPLSIDLTFHLLRTLLELARTQSQRERAEQNRIIFDSV [Urocortin, Urocortin (rat, Sigma Cat. no. U-6631), CRF receptor agonist peptide]”, the Mean survival % in series [2] (setting [5]) turned out to be 50.67%; in series [2] (setting [6]) it was 61.33%; in series [2] (setting [7]), 69.33%; in series [2] (setting [8]) it was 77.33%; in series [2] (setting [9]) it was 80.67%; in series [2] (setting [10]), 75%. In series [2] (setting [11]), this molecule had a Mean survival % of 84%. Also, the “cAMP synthesis induced by agonist (FIG. 3)” value in series [3] was “cAMP production increased with agonist concentration”.

For “GSNKGAIIGLM [Aβ, Gly-Ser-Asn-Lys-Gly-Ala-Ile-Ile-Gly-Leu-Met]”, the neuronal death result in the series on hippocampal neurones (after 2-3 days) is given as “cell death was visible”; in the series on hippocampal neurones (after 1 day of exposure), “no visible neuronal death”.

With “MLGIIAGKNSG [reverse β-amyloid sequence (35-25)]”, the neurotoxicity of peptide entry in the series with hippocampal neurones (20 μM, results not shown) was “not to be neurotoxic”.

B1: Rat CRF (corticotropin-releasing factor), Sigma catalogue no. C-3042 (peptide)
peptide: SQEPPISLDLTFHLLREVLEMTKADQLAQQAHNNRKLLDIA-NH2
In the case of B1, the “EC50 of neuroprotection of cerebellar granule neurones against LY 294002 (Assay 1)” value in series [4] was about 10 nM.

B2: Urocortin (rat, Sigma Cat. no. U-6631) (peptide)
peptide: DDPPLSIDLTFHLLRTLLELARTQSQRERAEQNRIIFDSV-NH2
B2: the “potency of neuroprotection of cerebellar granule neurones against LY 294002 (Assay 1)” value in series [4] is under 1000 nM.

B3: Urotensin 1 (teleost fish, Sigma cat. no. U-7253) (peptide)
peptide: NDDPPISIDLTFHLLRNMIEMARIENEREQAGLNRKYLDEV-NH2
For the molecule B3, in series [4], the “potency of neuroprotection of cerebellar granule neurones against LY 294002 (Assay 1)” value is under 1000 nM.
